# Data published in patent US12338266B2 (GENETIC S.P.A., priority 2019, dated 2025).
# “Also recorded” adds a separate entry of the source.
# Assays:
# [1] = tested on: mice with OVA-induced allergic asthma; experiment: Plasma IgE levels by ELISA in OVA-sensitized mice (Protocol-1); format: in vivo, Balb/c mice; conditions: 1 mg/kg i.p.; FIG. 6C, 7C
# Procedure: Balb/c mice (8-9 weeks old, Charles River, Calco, Italy) were housed in the animal care facility at the Department of Pharmacy of the University of Naples. Italy in a controlled environment (temperature 21±2° C. and humidity 60±10%) and provided with standard rodent chow and water. All animals were allowed to acclimate for four days prior to experiments and were subjected to 12 h light-12 h dark schedule. Each mouse was assigned an identity number and randomtzed to different groups so that all experiments were carried out in a blinded manner. The experimental procedures were approved by the Italian Ministry according to International and National law and policies (EU Directive 2010/63/EU and Italian DL 26/2014 for animal experiments, ARRIVE guidelines and the Basel declaration including the 3R concept). Animal studies are reported in compliance with the ARRIVE guidelines. Balb/c mice is the most widely mouse strain used to study asthma-like features in vivo and to investigate the undedying molecular and cellular mechanisms of allergen sensitization. Mice were treated subcutaneously (s.c.) with 0.4 mL (100 μg) of ovalbumin (OVA) complexed with alum (13 mg mL^−1) (OVA group) at day 0 and 7. Chicken egg-white ovalbumin (OVA: grade V. cat. A5503, Sigma Chemical Co., St. Louis, MO) was dissolved in sterile phosphate buffered saline (PBS) solution (250 μg/1 ml) and Al(OH)3 was added (at 13 mg/ml). This mix was used to induce the allergic sensitization of the animals by subcutaneous injection. OVA was dissolved at 3% in sterile PBS solution and this solution was nebulized (as the immunological challenges). At day 21 mice were exposed to OVA challenge for three days and then sacrificed. This experimental procedure induces in the mice an increase in plasma IgE levels and this effect is by itself sufficient to induce a significant increase in bronchial hyper-responsiveness and pulmonary inflammation, typical hallmarks of asthma. A group of animals was treated s.c. with saline (vehicle group). […] Animals were killed at selected time points by overdose of enflurane and bronchi and blood collected.
# Blood was collected by intracardiac puncture using citrate as anticoagulant. Plasma was obtained by centrifugation at 800×g at 4′C for 10 minutes and immediately frozen at −80° C. Total IgE levels were measured by means of ELISA using matched antibody pairs (BD Biosciences Pharmingen San Jose, Calif.).
# [2] = tested on: mice with OVA-induced allergic asthma; experiment: Lung hyperreactivity / Penh by whole body plethysmography (Protocol-2); format: in vivo, Balb/c mice; conditions: for basal Penh measurement (non-challenged with methacholine): FIG. 9B
# Procedure: (§1) Male Balb/c SPF mice (26*2 g, 6 week-old) were purchased from the animal house facilities at the Faculty of Medicine (University of Sāo Paulo, Brazil). They were group-housed in a temperature-controlled room at 22° C. with a 12/12-hour light/dark cycle and allowed free access to food and water. The study is in agreement with the Ethical Principles for Animal Research established by the Brazilian College for Animal Experimentation (COBEA). According to the internal laboratory rules, euthanasia will be performed if severe distress related to the test agents developed during the experiment. Mice were sensitized with two subcutaneous injections of 0.2 ml of OVA/Al(OH)3, with an interval of 7 days (Sham animals received the Al(OH)3 suspension in PBS with no OVA). Chicken egg-white ovalbumin (OVA; grade V, cat. A5503, Sigma Chemical Co., St. Louis, Mo.) was dissolved in sterile phosphate buffered saline (PBS) solution (50 μg/ml) and Al(OH)3 was added (at 8 mg/ml). This mix was used to induce the allergic sensitization of the animals by subcutaneous injection. OVA was dissolved at 1% in sterile PBS solution and this solution was nebulized (as the immunological challenges). Seven days after the second sensitization (i.e., 3rd week), the animals were nebulized twice a week with the 1% OVA solution (Sham and untreated OVA groups were nebulized with PBS) during 20 minutes for the next 4 weeks. Thirty minutes before the challenges (OVA nebulization) and daily during the next 4 weeks, mice were intra-nasally treated (10 μl/animal as 5 μl/nostril) with the respective compounds/vehicle. […] Animals were killed at selected time points by overdose of enflurane and BAL and blood collected.
# Airway responsiveness in conscious, spontaneously breathing animals was measured at the end of the 6th week (i.e., after 4 weeks OVA challenges+treatments), 24 h after the last OVA/PBS challenge via whole body plethysmography (Buxco Europe Ltd, Winchester, UK). Experiments were carried out in a quiet room by an investigator who was unaware of the nature of treatments. Aerosolized saline (50 μl/mouse during 60 s) and then the muscarinic agonist metacholine (MCh) at increasing concentrations (3.12, 6.25, 12.5 and 25.0 mg/ml in PBS) was nebulized through an inlet of the main chamber for 3 min each to induce bronchoconstriction and readings were taken and averaged for 6 min following each nebulization. After 20 min. the baseline values usually returned at the end of this period. Enhanced pause (Penh) was measured as an indicator of bronchoconstriction and consequent increase of airway resistance as: Penh=[(expiration time/relaxation time)−1][…].
# [3] = tested on: mice with OVA-induced allergic asthma; experiment: Total and differential leukocyte counts in BAL fluid (Protocol-2); format: in vivo, Balb/c mice; conditions: 4 weeks; for BAL eosinophils (OVA-induced increase): 100 nmol/animal/day intranasal, FIG. 10
# Procedure: as §1
# After Penh evaluation, the mice were anesthetized with inhaled isofluorane (5% v/v in O2) and blood samples were collected from the descending abdominal aorta. The mice were then euthanized by exsanguination and bronchoalveolar lavage (BAL) was performed by exposing and cannulating the trachea with a polyethylene tube (1 mm outer diameter) connected to a syringe. The lungs were washed by flushing 300 μL of heparin-containing PBS solution (20 UI/mL). The retrieved BAL lavage aliquots were obtained and the same procedure was repeated four additional times. The samples were centrifuged (1000 g for 10 min) and the cell pellet was resuspended in 200 μL of PBS solution, Total cell counts were determined using a Neubauer chamber, and differential counting was carried out in cytospin (Fanem Mod 2400; Sāo Paulo, Brazil) preparations stained with May-Grünwald dye. Leukocytes were classified based on morphological criteria.
# [4] = molecular target: T1, glucocorticoid receptor (Homo sapiens, UniProt P04150); conditions: higher than the parent compound; cited from earlier work
# T1 sequence (P04150 1-777): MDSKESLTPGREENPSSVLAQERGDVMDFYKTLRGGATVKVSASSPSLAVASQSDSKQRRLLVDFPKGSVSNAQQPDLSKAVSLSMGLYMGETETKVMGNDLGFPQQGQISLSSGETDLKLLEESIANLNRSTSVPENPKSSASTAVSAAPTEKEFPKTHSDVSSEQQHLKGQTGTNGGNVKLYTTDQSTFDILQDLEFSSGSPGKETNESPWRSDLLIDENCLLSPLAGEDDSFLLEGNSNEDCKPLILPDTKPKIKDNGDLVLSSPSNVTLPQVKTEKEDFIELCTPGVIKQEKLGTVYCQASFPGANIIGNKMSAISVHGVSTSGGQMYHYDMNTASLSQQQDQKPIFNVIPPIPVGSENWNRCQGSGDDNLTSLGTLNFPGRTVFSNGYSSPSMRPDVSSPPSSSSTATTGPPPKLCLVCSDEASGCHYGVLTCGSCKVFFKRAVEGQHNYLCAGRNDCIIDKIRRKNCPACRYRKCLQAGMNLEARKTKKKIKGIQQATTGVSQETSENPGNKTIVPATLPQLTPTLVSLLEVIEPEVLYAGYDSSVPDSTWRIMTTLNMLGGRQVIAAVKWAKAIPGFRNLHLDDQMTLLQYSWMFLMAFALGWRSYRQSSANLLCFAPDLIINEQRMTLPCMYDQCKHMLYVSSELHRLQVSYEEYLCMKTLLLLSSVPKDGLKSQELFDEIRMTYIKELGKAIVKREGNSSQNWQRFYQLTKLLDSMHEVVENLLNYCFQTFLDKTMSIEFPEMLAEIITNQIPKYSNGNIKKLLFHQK
# [5] = 10 mg orally once daily at bedtime; cited from earlier work
# [6] = intranasal administration at recommended doses; cited from earlier work
# [7] = in vivo; cited from earlier work
smiles,measurement,setting,value
"CC(C)(O)c1ccccc1CC[C@@H](SCC1(CC(=O)O)CC1)c1cccc(/C=C/c2ccc3ccc(Cl)cc3n2)c1 [montelukast, (R,E)-2-(1-((1-(3-(2-(7-chloroquinolin-2-yl)vinyl)phenyl)-3-(2-(2-hydroxypropan-2-yl)phenyl)propylthio)-methyl)cyclopropyl)acetic acid]",allergen induced plasma IgE increase,[1],did not affect IgE
same,basal Penh measurement (non-challenged with methacholine),"[2]; 10 nmol/animal/day intranasal, daily for 4 weeks",significantly reduced the basal Penh measurement
same,basal Penh measurement (non-challenged with methacholine),"[2]; 10 nmol/animal/day intranasal, daily for 4 weeks, listed as Montelukast",slightly decrease the basal (non-challenged with methacholine) response
same,"Penh parameters following methacholine challenge (Emax, AUC)","[2]; 10 nmol/animal/day intranasal, FIG. 9C-D",did not affect the parameters measured following methacholine challenge
same,direct effects on lung function,[2]; 10 nmol/day/animal intranasal,negligible direct effects on lung function
same,BAL eosinophils / eosinophil recruitment to the lungs,"[3]; 10 nmol/animal/day intranasal, FIG. 11",significantly reduced; also recorded: significant inhibitory effects on eosinophil recruitment to the lungs
"C[C@]12C=CC(=O)C=C1CC[C@@H]1[C@@H]2[C@@H](O)C[C@@]2(C)[C@H]1C[C@H]1O[C@@H](C3CCCCC3)O[C@]12C(=O)CO [Des-ciclesonide, C21-desisobutyryl-ciclesonide]",affinity for the glucocorticoid receptor relative to the parent compound (ciclesonide),[4],120 times
"CC(C)(O)c1ccccc1CC[C@@H](SCC1(CC(=O)[O-])CC1)c1cccc(/C=C/c2ccc3ccc(Cl)cc3n2)c1.[Na+] [Montelukast sodium, (R,E)-2-(1-((1-(3-(2-(7-chloroquinolin-2-yl)vinyl)phenyl)-3-(2-(2-hydroxypropan-2-yl)phenyl)propylthio)-methyl)cyclopropyl)acetic acid monosodium salt]","variables of asthma control (FEV1, daytime and night time symptom scores, as-needed β-agonist use)",[5],improvement in variables of asthma control
"CC(C)C(=O)OCC(=O)[C@@]12O[C@H](C3CCCCC3)O[C@@H]1C[C@H]1[C@@H]3CCC4=CC(=O)C=C[C@]4(C)[C@H]3[C@@H](O)C[C@@]12C [ciclesonide, (11β,16α)-16,17-[[(R)-cyclohexylmethylene]bis(oxy)]-11-hydroxy-21-(2-methyl-1-oxopropoxy)pregna-1,4-diene-3,20-dione]",allergen induced plasma IgE increase,[1],significantly inhibited allergen induced IgE increase
same,"airway responsiveness, Penh (basal, methacholine Emax and AUC)","[2]; 100 nmol/day/animal intranasal, daily for 4 weeks, FIG. 8A-D",Significant reduction of this response; also recorded: significantly reduced
same,BAL eosinophils (OVA-induced increase),[3],significantly reduced
same,BAL eosinophils (OVA-induced increase),[3]; listed as Ciclesonide,significantly reduced this increase
same,serum concentrations of ciclesonide,[6],negligible serum concentrations
same,cortisol suppression,[7],comparable with placebo
